Source: US8129417B2, “Substituted octahydrocyclopenta[C]pyrrol-4-amines as calcium channel blockers” (Abbott Laboratories, priority 2008, dated 2012)

Target: human Cav2.2 (Homo sapiens, UniProt Q00975)
Test: Assessment of calcium channel activity using FLIPR (Ca2+ influx in IMR32 cells)
Format: cell-based
Conditions: 60 minute pre-incubation with compound, 2 μM nifedipine, depolarized with 80 mM KCl
Method in brief: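 IMR32 neuroblastoma cells seeded at 1-1.2×10^5 cells/well and grown 48 h at 37 °C before FLIPR Ca2+ influx read. Percent inhibition at each concentration vs no-inhibitor activity; IC50 by non-linear sigmoidal dose-response fit.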

Sequence of human Cav2.2 (Q00975 whole entry): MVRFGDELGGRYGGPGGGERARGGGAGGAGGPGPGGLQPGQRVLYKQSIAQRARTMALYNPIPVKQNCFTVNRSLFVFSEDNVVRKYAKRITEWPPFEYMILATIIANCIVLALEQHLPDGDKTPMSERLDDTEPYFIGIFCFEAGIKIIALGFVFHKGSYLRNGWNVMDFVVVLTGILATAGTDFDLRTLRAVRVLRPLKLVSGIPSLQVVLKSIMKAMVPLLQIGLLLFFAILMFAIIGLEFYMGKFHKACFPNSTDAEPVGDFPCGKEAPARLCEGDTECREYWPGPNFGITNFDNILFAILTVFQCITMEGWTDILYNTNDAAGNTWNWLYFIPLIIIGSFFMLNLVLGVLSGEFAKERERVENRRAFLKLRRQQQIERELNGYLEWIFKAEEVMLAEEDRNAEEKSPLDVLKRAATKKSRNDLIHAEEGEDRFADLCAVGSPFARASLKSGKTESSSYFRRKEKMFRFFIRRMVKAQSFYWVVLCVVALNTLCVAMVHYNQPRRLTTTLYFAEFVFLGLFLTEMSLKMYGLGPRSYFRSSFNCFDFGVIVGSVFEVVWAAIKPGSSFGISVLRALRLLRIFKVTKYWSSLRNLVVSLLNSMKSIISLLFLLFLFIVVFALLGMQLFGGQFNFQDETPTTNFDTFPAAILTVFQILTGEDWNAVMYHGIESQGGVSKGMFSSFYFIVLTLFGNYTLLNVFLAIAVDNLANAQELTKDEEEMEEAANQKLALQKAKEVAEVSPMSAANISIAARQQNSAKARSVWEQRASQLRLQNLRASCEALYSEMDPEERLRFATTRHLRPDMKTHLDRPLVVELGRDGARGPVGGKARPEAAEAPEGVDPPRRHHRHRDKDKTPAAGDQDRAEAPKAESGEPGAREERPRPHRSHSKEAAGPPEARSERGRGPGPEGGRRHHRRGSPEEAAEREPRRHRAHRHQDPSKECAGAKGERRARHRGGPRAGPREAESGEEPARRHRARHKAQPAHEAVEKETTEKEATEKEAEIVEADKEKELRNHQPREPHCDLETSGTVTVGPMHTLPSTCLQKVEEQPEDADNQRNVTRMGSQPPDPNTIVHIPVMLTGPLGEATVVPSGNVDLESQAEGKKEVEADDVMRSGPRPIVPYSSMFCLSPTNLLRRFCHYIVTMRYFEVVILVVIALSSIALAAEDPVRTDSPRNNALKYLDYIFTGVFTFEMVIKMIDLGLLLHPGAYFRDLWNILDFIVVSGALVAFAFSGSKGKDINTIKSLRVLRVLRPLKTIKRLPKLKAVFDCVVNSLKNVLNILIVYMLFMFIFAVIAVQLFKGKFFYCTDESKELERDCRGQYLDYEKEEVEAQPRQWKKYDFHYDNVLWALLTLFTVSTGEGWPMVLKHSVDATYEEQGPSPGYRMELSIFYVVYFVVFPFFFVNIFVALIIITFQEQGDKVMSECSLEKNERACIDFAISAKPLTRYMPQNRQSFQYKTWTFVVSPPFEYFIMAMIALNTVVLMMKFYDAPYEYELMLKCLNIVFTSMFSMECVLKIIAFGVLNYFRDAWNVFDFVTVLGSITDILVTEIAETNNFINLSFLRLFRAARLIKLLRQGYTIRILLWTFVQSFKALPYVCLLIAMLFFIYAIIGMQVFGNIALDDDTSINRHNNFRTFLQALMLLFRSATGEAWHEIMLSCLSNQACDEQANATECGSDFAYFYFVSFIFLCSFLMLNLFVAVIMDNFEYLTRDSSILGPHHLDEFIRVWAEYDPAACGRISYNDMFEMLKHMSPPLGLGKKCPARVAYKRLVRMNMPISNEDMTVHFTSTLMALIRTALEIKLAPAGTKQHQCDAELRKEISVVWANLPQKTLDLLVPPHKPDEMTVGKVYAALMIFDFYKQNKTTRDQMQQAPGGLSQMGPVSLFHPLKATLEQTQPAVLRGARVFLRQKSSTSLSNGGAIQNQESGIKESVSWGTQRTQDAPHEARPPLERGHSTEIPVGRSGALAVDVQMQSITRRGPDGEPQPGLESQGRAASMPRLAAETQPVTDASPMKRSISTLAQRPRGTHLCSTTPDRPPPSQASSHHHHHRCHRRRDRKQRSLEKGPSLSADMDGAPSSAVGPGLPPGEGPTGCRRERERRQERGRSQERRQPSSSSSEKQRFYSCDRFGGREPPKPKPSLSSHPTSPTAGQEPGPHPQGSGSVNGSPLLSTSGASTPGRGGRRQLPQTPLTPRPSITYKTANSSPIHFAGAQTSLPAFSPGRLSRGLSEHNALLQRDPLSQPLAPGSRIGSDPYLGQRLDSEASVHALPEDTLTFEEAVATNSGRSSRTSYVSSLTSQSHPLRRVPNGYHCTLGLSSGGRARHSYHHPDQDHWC
Sequence of human Cav2.2 (P54289 25-946 partner limits assumed): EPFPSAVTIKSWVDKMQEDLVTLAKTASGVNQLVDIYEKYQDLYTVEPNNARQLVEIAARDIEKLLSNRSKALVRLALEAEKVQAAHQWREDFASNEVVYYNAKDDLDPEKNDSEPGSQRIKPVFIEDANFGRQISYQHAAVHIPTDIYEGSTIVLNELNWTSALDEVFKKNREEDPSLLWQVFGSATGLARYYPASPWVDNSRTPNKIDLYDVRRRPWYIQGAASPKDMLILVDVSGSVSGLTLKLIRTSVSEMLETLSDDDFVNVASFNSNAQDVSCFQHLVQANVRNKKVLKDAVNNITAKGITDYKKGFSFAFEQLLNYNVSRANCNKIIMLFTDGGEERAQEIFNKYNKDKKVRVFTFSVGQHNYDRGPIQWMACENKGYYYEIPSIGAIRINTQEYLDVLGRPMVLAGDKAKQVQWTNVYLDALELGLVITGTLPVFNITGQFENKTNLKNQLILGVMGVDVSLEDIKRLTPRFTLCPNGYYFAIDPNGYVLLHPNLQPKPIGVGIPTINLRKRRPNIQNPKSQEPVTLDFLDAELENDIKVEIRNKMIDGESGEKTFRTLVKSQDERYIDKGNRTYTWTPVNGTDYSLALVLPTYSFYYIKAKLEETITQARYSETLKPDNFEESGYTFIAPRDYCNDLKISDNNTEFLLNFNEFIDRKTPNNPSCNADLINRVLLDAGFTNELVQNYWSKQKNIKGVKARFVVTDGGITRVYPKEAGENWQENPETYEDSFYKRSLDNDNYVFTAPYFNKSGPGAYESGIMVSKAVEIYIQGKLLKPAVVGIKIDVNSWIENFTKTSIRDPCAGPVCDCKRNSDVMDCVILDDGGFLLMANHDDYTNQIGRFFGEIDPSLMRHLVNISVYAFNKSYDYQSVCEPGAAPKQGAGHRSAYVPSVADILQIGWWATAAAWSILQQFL
Sequence of human Cav2.2 (P54289 947-1103 partner limits assumed): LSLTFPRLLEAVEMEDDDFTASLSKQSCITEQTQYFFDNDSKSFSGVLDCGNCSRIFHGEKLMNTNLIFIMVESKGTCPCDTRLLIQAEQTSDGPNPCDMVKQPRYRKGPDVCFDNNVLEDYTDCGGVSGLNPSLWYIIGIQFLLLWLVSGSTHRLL
Sequence of human Cav2.2 (P54284 whole entry partner): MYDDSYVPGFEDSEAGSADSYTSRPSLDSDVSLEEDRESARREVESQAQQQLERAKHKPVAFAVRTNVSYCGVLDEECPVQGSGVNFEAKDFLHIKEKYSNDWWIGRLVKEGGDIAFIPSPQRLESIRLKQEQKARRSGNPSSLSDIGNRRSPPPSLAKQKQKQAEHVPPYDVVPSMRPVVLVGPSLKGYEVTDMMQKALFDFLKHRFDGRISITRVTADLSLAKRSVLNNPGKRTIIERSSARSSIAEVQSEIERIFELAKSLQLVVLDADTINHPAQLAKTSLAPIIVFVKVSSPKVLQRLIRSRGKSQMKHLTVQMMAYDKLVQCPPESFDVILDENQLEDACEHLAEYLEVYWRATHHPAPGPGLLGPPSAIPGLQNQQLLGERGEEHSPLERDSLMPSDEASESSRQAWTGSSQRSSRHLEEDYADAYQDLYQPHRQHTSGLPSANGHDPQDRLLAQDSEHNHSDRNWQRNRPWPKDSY

Row | SMILES | IC50 [nM]
1 | CN[C@H](C(=O)N[C@H]1CC[C@@H]2CN(S(=O)(=O)c3ccc(C(F)(F)F)cc3)C[C@@H]21)C(C)C [Example 451, N^2-methyl-N^1-((3aR,4S,6aS)-2-{[4-(trifluoromethyl)phenyl]sulfonyl}octahydrocyclopenta[c]pyrrol-4-yl)-L-valinamide] | 800
2 | CN[C@H](C(=O)N[C@H]1CC[C@@H]2CN(S(=O)(=O)c3ccc(F)cc3)C[C@@H]21)C(C)C [Example 452, N^1-{(3aR,4S,6aS)-2-[(4-fluorophenyl)sulfonyl]octahydrocyclopenta[c]pyrrol-4-yl}-N^2-methyl-L-valinamide] | 9120
3 | CCCC[C@H](NC)C(=O)N[C@H]1CC[C@@H]2CN(S(=O)(=O)c3ccc(F)cc3)C[C@@H]21 [Example 454, N^1-{(3aR,4S,6aS)-2-[(4-fluorophenyl)sulfonyl]octahydrocyclopenta[c]pyrrol-4-yl}-N^2-methyl-L-norleucinamide] | 2030
4 | CN[C@@H](CC(C)C)C(=O)N[C@H]1CC[C@@H]2CN(S(=O)(=O)c3ccc(F)cc3)C[C@@H]21 [Example 455, N^1-{(3aR,4S,6aS)-2-[(4-fluorophenyl)sulfonyl]octahydrocyclopenta[c]pyrrol-4-yl}-N^2-methyl-L-leucinamide] | 3030
5 | CCC[C@H](NC)C(=O)N[C@H]1CC[C@@H]2CN(CCC(c3ccc(F)cc3)c3ccc(F)cc3)C[C@@H]21 [Example 458, N^1-{(3aR,4S,6aS)-2-[3,3-bis(4-fluorophenyl)propyl]octahydrocyclopenta[c]pyrrol-4-yl}-N^2-methyl-L-norvalinamide] | 3080
6 | CN[C@@H](CC(C)C)C(=O)N[C@@H]1CC[C@H]2CN(C(c3ccccc3)c3ccccc3)C[C@H]21 [Example 469, N^1-[(3aS,4R,6aR)-2-benzhydryloctahydrocyclopenta[c]pyrrol-4-yl]-N^2-methyl-L-leucinamide] | 2240
7 | CCCN[C@@H](CC(C)(C)C)C(=O)N[C@H]1CC[C@@H]2CN(S(=O)(=O)c3ccc(C(F)(F)F)cc3)C[C@@H]21 [Example 470, 4-methyl-N^2-propyl-N^1-((3aR,4S,6aS)-2-{[4-(trifluoromethyl)phenyl]sulfonyl}octahydrocyclopenta[c]pyrrol-4-yl)-L-leucinamide] | 1030
8 | CC(C)(C)C[C@H](NCC1CC1)C(=O)N[C@H]1CC[C@@H]2CN(S(=O)(=O)c3ccc(C(F)(F)F)cc3)C[C@@H]21 [Example 471, N^2-(cyclopropylmethyl)-4-methyl-N^1-((3aR,4S,6aS)-2-{[4-(trifluoromethyl)phenyl]sulfonyl}octahydrocyclopenta[c]pyrrol-4-yl)-L-leucinamide] | 650
9 | CC(C)CN[C@@H](CC(C)(C)C)C(=O)N[C@H]1CC[C@@H]2CN(S(=O)(=O)c3ccc(C(F)(F)F)cc3)C[C@@H]21 [Example 473, N^2-isobutyl-4-methyl-N^1-((3aR,4S,6aS)-2-{[4-(trifluoromethyl)phenyl]sulfonyl}octahydrocyclopenta[c]pyrrol-4-yl)-L-leucinamide] | 2660
10 | CC(C)(C)C[C@H](NCC1CCCC1)C(=O)N[C@H]1CC[C@@H]2CN(S(=O)(=O)c3ccc(C(F)(F)F)cc3)C[C@@H]21 [Example 474, N^2-(cyclopentylmethyl)-4-methyl-N^1-((3aR,4S,6aS)-2-{[4-(trifluoromethyl)phenyl]sulfonyl}octahydrocyclopenta[c]pyrrol-4-yl)-L-leucinamide] | 1740
11 | CC(C)(C)C[C@H](NCC1CCCCC1)C(=O)N[C@H]1CC[C@@H]2CN(S(=O)(=O)c3ccc(C(F)(F)F)cc3)C[C@@H]21 [Example 475, N^2-(cyclohexylmethyl)-4-methyl-N^1-((3aR,4S,6aS)-2-{[4-(trifluoromethyl)phenyl]sulfonyl}octahydrocyclopenta[c]pyrrol-4-yl)-L-leucinamide] | 1840
12 | CCCCN[C@@H](CC(C)(C)C)C(=O)N[C@H]1CC[C@@H]2CN(S(=O)(=O)c3ccc(C(F)(F)F)cc3)C[C@@H]21 [Example 476, N^2-butyl-4-methyl-N^1-((3aR,4S,6aS)-2-{[4-(trifluoromethyl)phenyl]sulfonyl}octahydrocyclopenta[c]pyrrol-4-yl)-L-leucinamide] | 1310
13 | CCN[C@@H](CC(C)(C)C)C(=O)N[C@H]1CC[C@@H]2CN(S(=O)(=O)c3ccc(C(F)(F)F)cc3)C[C@@H]21 [Example 477, N^2-ethyl-4-methyl-N^1-((3aR,4S,6aS)-2-{[4-(trifluoromethyl)phenyl]sulfonyl}octahydrocyclopenta[c]pyrrol-4-yl)-L-leucinamide] | 1880

More lines, in order of falling IC50, values ahead:

Row | IC50 [nM] | SMILES
14 | 5330 | CCC[C@H](NC)C(=O)N[C@H]1CC[C@H]2CN(S(=O)(=O)c3ccc(C(F)(F)F)cc3)C[C@H]21 [Example 456, N^2-methyl-N^1-((3aS,4S,6aR)-2-{[4-(trifluoromethyl)phenyl]sulfonyl}octahydrocyclopenta[c]pyrrol-4-yl)-L-norvalinamide]
15 | 4230 | CC(C)(C)C[C@H](N)C(=O)N[C@H]1CC[C@@H]2CN(S(=O)(=O)c3ccc(F)cc3)C[C@@H]21 [Example 453, N^1-{(3aR,4S,6aS)-2-[(4-fluorophenyl)sulfonyl]octahydrocyclopenta[c]pyrrol-4-yl}-4-methyl-L-leucinamide]
16 | 4060 | CN[C@@H](CC(C)C)C(=O)N[C@@H]1CC[C@H]2CN(Cc3ccc(C(F)(F)F)cc3)C[C@H]21 [Example 449, N^2-methyl-N^1-{(3aS,4R,6aR)-2-[4-(trifluoromethyl)benzyl]octahydrocyclopenta[c]pyrrol-4-yl}-L-leucinamide]
17 | 3070 | CN[C@@H](CC(C)C)C(=O)N[C@H]1CC[C@H]2CN(S(=O)(=O)c3ccc(C(F)(F)F)cc3)C[C@H]21 [Example 457, N^2-methyl-N^1-((3aS,4S,6aR)-2-{[4-(trifluoromethyl)phenyl]sulfonyl}octahydrocyclopenta[c]pyrrol-4-yl)-L-leucinamide]
18 | 2690 | CCC[C@H](NC)C(=O)N1C[C@H]2CC[C@H](NC(=O)C(c3ccc(F)cc3)c3ccc(F)cc3)[C@H]2C1 [Example 460, 2,2-bis(4-fluorophenyl)-N-[(3aR,4S,6aS)-2-(N-methyl-L-norvalyl)octahydrocyclopenta[c]pyrrol-4-yl]acetamide]
19 | 2330 | FC(F)(F)c1cccc(CN2C[C@H]3CC[C@H](NC(c4ccccc4)c4ccccc4)[C@H]3C2)c1 [Example 466, (3aR,4S,6aS)—N-benzhydryl-2-[3-(trifluoromethyl)benzyl]octahydrocyclopenta[c]pyrrol-4-amine]
20 | 1880 | CN[C@@H](CC(C)(C)C)C(=O)N1C[C@H]2CC[C@H](NC(=O)C(c3ccc(F)cc3)c3ccc(F)cc3)[C@H]2C1 [Example 461, N-[(3aR,4S,6aS)-2-(N,4-dimethyl-L-leucyl)octahydrocyclopenta[e]pyrrol-4-yl]-2,2-bis(4-fluorophenyl)acetamide]
21 | 1620 | CN[C@@H](CC(C)C)C(=O)N1C[C@H]2CC[C@H](NC(=O)C(c3ccc(F)cc3)c3ccc(F)cc3)[C@H]2C1 [Example 459, 2,2-bis(4-fluorophenyl)-N-[(3aR,4S,6aS)-2-(N-methyl-L-leucyl)octahydrocyclopenta[c]pyrrol-4-yl]acetamide]
22 | 1270 | CC(C)(C)C[C@H](NCC1CCC1)C(=O)N[C@H]1CC[C@@H]2CN(S(=O)(=O)c3ccc(C(F)(F)F)cc3)C[C@@H]21 [Example 472, N^2-(cyclobutylmethyl)-4-methyl-N^1-((3aR,4S,6aS)-2-{[4-(trifluoromethyl)phenyl]sulfonyl}octahydrocyclopenta[c]pyrrol-4-yl)-L-leucinamide]
